Consider two compounds from US11826402B2, “Combination therapy involving antibodies against claudin 18.2 for treatment of metastatic pancreatic adenocarcinoma” (Astellas Pharma Inc., priority 2013, dated 2023).

In brackets after ≈: the same amount, converted by molar mass. Entries after “also recorded” stand apart in the source; their conditions may differ.

In series [1] the test system is BxPC3-LVT. Description: Inhibition of proliferation (XTT viability assay, 4 days). It is filed as cell-based, human. On the procedure: To analyze dose-response curves of each chemotherapeutic agent, a proliferation assay was performed.
Cells were seeded in 96 well plates and after 4-6 hours gemcitabine or oxaliplatin was added in following concentrations: 1000, 500, 250, 100 and 20 ng/ml. The proliferation assay was incubated for 4 days at 37° C. and 5% CO2. 50 μl XTT complete reagent (50 parts XTT+1 part coupl. reagent mixed) was added and incubated at 37° C. Measurement of absorbance (cells plus supernatant) was done with the Tecan Safire after 3 h and 4 h. Inhibition of proliferation was calculated compared to medium values set as 100%. EC50 values for gemcitabine and oxaliplatin were calculated in the GraphPad Prism program.

The test system of series [2] is CLDN18.2 expression in DANG. The series is described as follows: Effect of chemotherapeutic agents on CLDN18.2 expression (RT-PCR, western blot). It is filed as cell-based, human. Particulars: DANG pretreated 2 days, Gem 1 ng/ml or Gem 1 ng/ml+Ox 10 ng/ml, versus untreated. The method, then:
FIGS. 30A and 30B show the effect of treatment with chemotherapeutic agents on CLDN18.2 expression (RNA).
Actin was used to show equal loading of proteins.
The area of each bar is divided to indicate the percentage of cells in G0/G1, S and G2 phase.
For RNA isolation from pancreatic cancer cell lines, cells were seeded in 10 cm dishes and grown for 2-3 days until 80% confluent. RNA was isolated according to instructions supplied with the RNeasy® Mini Kit (Qiagen). cDNA preparation was performed following manufacturers instructions provided with the SuperScript® III First Strand kit (Invitrogen). RNA and cDNA samples were stored at −80° C.
Quantitative analysis of CLDN18.2 transcripts was performed by amplifying oligo(dT)-primed cDNAs in a 40 cycle PCR reaction using PCR primers #5054s (5′-[…]-3′) and #5060 as (5′-[…]-3′) differentiating between CLDN18.1 and CLDN18.2 isoforms. The reaction was prepared with SYBR Green (QuantiTect SYBR Green PCR Kit, Qiagen), which intercalates in double stranded DNA. […]
For isolation of proteins of pancreatic cancer cell lines, cells were seeded in 10 cm dishes and grown for 2-3 days until 80% confluent. […] Protein concentration was measured in a spectrophotometer (Absorption at 280 nm) and samples were stored at −80° C. until use. […]

A short description of series [3]: Repeated dose toxicity study in cynomolgus monkeys. The series is classed as in vivo.
For series [4], the system named is Panc04.03. Description: IMAB362-mediated ADCC assay. The series is classed as cell-based, human. Particulars: at least 2 donors.
Series [5] deals with MiaPaCa-2-LVT, Suit2-LVT and CAPAN1-LVT. Description: IMAB362-mediated CDC assay, LVT cell lines. It is filed as cell-based, human. The method, then: CDC was performed as follows.
CHO-K1 cells stably transfected with CLDN18.2 (p740) and luciferase were used as assay positive controls in each assay (FIG. 23A). […] This is most likely due to the fact that neoplastic cells over-express one or more membrane bound complement inhibitory proteins (e.g. CD46, CD55 and CD59) (Geis et al., Curr Cancer Drug Targets, 2010 10:922-931). However, if expression of these inhibitory proteins on tumor cells affect clinical outcome of an antibody therapy is still contradictory (Dzietczenia et al. Med. Oncol. 2010, 27:743-6; Weng and Levy at al., Blood 2001 98:1352-7). In addition to the endogenous cell lines, all the LVT cell lines were tested in CDC assays.

Series [6] has as its system KATO-III. The series is described as follows: IMAB362-induced ADCC on gastric cancer cells, also after chemotherapy pretreatment. The series is classed as cell-based, human. The following applies: KATO-III; up to 200 μg/ml, 24 hours, human PBMC E:T 40:1. On the procedure:
Peripheral blood mononuclear cells (PBMCs) including NK cells, monocytes, […] or other effector cells from healthy human donors were purified by Ficoll Hypaque density centrifugation. Washed effector cells were seeded in X-Vivo medium. Kato III cells which express CLDN18.2 endogenously and are of gastric origin were used as target cells in this setting. Target cells stably expressed luciferase, lucifer yellow, which is oxidized by viable cells only.

Series [7] deals with DANG xenografts. Description: Subcutaneous DANG xenograft treatment. It is filed as in vivo, mice. Particulars: low CLDN18.2 expressing DANG xenografts.

`Nc1ccn([C@@H]2O[C@H](CO)[C@@H](O)C2(F)F)c(=O)n1` [gemcitabine, 4-amino-1-(2-deoxy-2,2-difluoro-β-D-erythro-pentofuranosyl)pyrimidin-2(1H)-one]: the “sensitivity of cells to the agent” value in series [1] is “very sensitive”. This compound also had an IC50 in series [1] (Homo sapiens, 96 h, 4 days exposure) of around 0.002 µg/mL (≈ 7.6 nM). For the same compound, the “mRNA and protein levels of CLDN18.2” value is “increased; also recorded: upregulation” in series [2] and “upregulation” in series [2] (listed as Gem).
For the compound “IMAB362: chimeric IgG1 antibody directed against CLDN18.2, developed by Ganymed Pharmaceuticals AG”, the gastric toxicity result in series [3] (any toxicity study) is listed as “no gastric toxicity”. Further, the “tolerability of repeated doses i.v.” value in series [3] (up to 5 weekly applications of up to 100 mg/kg) is recorded as “well tolerated”. Also, the “ADCC EC50” value in series [4] was “n.m”. The “CDC EC50” value is “n.m” in series [5] (BxPC3 LVT); 0.9701 µg/mL in series [5] (CAPAN1-LVT); “n.m” in series [5] (DANG-LVT); “n.m” in series [5] (HPAC-LVT); 0.34 µg/mL in series [5] (MiaPaCa2-LVT); 0.291 µg/mL in series [5] (Patu8902-LVT). Further, the “CDC EC50” value in series [5] (Suit2-LVT) and in series [5] (YAPC-LVT) was “n.m” throughout. Besides, the “CDC Max. lysis” value in series [5] (BxPC3 LVT) is “n.m”; in series [5] (CAPAN1-LVT), 79.1%; in series [5] (DANG-LVT) it was “n.m”; in series [5] (HPAC-LVT), “n.m”; in series [5] (MiaPaCa2-LVT), 78.4%; in series [5] (Patu8902-LVT) it was 76.7%. The “CDC Max. lysis” value in series [5] (Suit2-LVT) and in series [5] (YAPC-LVT) was “n.m” throughout. Besides, the “maximum lysis rates (ADCC)” value in series [6] is 80-100%. Moreover, the “growth inhibition compared to high CLDN18.2 expressing xenograft tumors” value in series [7] is given as “reduced”.
